In patent US20250197423A1, “RAS INHIBITORS” (Revolution Medicines, Inc., priority 2022, published 2025):

Assays:
SW1573 = conditions: Canon et al. 2019; cited from earlier work
[1] = from CO[C@@H](C)c1ncccc1-c1c(CC(C)(C)CO)c2cc(C3=CCCN(C[C@H](NC(=O)OC(C)(C)C)C(=O)N4CCC[C@@H](C(=O)O)N4)C3)ccc2n1CC(F)(F)F; ester bond; 18-membered ring; EDCI/HOBt/DIEA; DCM; 12.5 mM; 25.0 °C; 16.0 h; 3 steps

**Q.** Which “sensitivity of cell line to inhibitor” value (SW1573) does the source give for `C=CC(=O)N1CCN(c2nc(=O)n(-c3c(C)ccnc3C(C)C)c3nc(-c4c(O)cccc4F)c(F)cc23)[C@@H](C)C1` [AMG510] here?
**A.** insensitive

**Q.** Which ring closure, isolated yield [1] does the source give for `CO[C@@H](C)c1ncccc1-c1c2c3cc(ccc3n1CC(F)(F)F)C1=CCCN(C1)C[C@H](NC(=O)OC(C)(C)C)C(=O)N1CCC[C@H](N1)C(=O)OCC(C)(C)C2` here?
**A.** 63.7%
